For data set [1], the system named is transgenic fli-1: enhanced GFP zebrafish embryos. The experiment in a line: Zebrafish embryo assay: antiangiogenic effects. It is filed as in vivo, zebrafish (Danio rerio). The note with it: for inhibition in vivo at 1 µM / inhibition in vivo at 2.5 µM / inhibition in vivo at 10 µM: Danio rerio. The procedure: As stated previously, zebrafish is regarded as a powerful tool in the study of human diseases. […] In this study, all GA derivatives were incubated with the transgenic friend leukemia integration-1 (fli-1): enhanced GFP zebrafish embryos which carried a fli-1 promoter which can drive the expression of GFP in the whole endothelium.
Figure 1 Effects on neovascularization in zebrafish embryos. The transgenic fli-1: enhanced GFP zebrafish embryos in embryo water (0.2 g/L of instant ocean salt in distilled water) incubated with 1 μM of compounds at 6 h postfertilization (hpf) for 24 h. Zebrafish embryos were imaged (Imager.Z1, magnification: left, 40×; right, 100×).
Using transgenic fli-1: enhanced GFP zebrafish embryos, we investigated the effects of all compounds on angiogenesis. […] At about 6 h post fertilization (hpf), the embryos were sorted in the 6-well plate (six embryos/well), removing dead and unhealthy embryos. Then the embryos were treated with the indicated concentrations of compounds which were added into embryo water. After incubation for 24 or 48 h, the embryos were anesthetized using 0.05% 2-phenoxyethanol in embryo water, quantified and photographed.

Data set [2] deals with zebrafish embryos. The data set can be described thus: Zebrafish toxicity: heart rates. It is filed as in vivo. The note with it: transgenic fli-1:enhanced GFP (fli-1:EGFP) line, zebrafish, in vivo. As for the experimental part: (§1) To investigate the toxicity of these four compounds, the heart rates and the mortality rates of zebrafish embryos were recorded (Table 2 and Table 3). The heart rate of zebrafish in the control group was 117 beats/min.
(§2) Using transgenic fli-1: enhanced GFP zebrafish embryos, we investigated the effects of all compounds on angiogenesis. Zebrafish embryos were generated by natural pairwise mating and raised at 28.5 °C in embryo water (0.2 g/L of Instant Ocean Salt in distilled water). At about 6 h post fertilization (hpf), the embryos were sorted in the 6-well plate (six embryos/well), removing dead and unhealthy embryos. Then the embryos were treated with the indicated concentrations of compounds which were added into embryo water. After incubation for 24 or 48 h, the embryos were anesthetized using 0.05% 2-phenoxyethanol in embryo water, quantified and photographed.

In data set [3] the test system is zebrafish embryos. The experiment in a line: Zebrafish toxicity: mortality rate. It is filed as in vivo, zebrafish (Danio rerio). The procedure:
as §1, §2

For a further data set, the system named is HUVECs. The data set can be described thus: Matrigel tube formation assay. It is filed as cell-based, Human. Particulars: Homo sapiens, HUVEC, 0.5 μM, 6 h, vs control, read-out: inhibitory rates of tube formation. The procedure: In the later stages of angiogenesis, tube formation of ECs is also an important process. Thus, a Matrigel tube formation assay was applied to assess the ability of HUVECs to form ECs vascular structures which is believed to be significant in new vessel formation.
Figure 4 Effects on the HUVECs tube formation. (I) HUVECs (1 × 10^4 cells) suspended in DMEM containing each compound (0.5 or 1 or 2 μM) were added to the Matrigel. Control was treated with DMEM alone. After incubation for 6 h at 37 °C, capillary networks were photographed and quantified (Olympus CKX41, magnification: 100×); (II) Rates of the HUVECs tube formation. The number of intact tubes was counted in five randomly chosen regions and expressed as the percentage of the control. The results were expressed as mean ±SD. ** p < 0.01; *** p < 0.005 compared with control.
Matrigel was dissolved at 4 °C overnight. Each well of prechilled 96-well plates was coated with 50 μL of Matrigel, incubated and solidified at 37 °C for 45 min. After removing the unsolidified fluid, HUVECs at the density of 1 × 10^4 were cultured in DMEM containing the indicated concentrations of compounds for 6 h. Controls were treated with the DMEM alone. Images were digitally captured and quantitatively analyzed (Olympus). The numbers and line lengths of the circular tubules formed by the cells were calculated manually. The values were observed from five randomly selected fields.

The subject of a further data set is A549. The experiment in a line: MTT assay, cell proliferation. It is filed as cell-based. Particulars: Homo sapiens, 24 h, read-out: IC50, inhibition of cell proliferation. As for the experimental part:
(§3) HepG2, HCT116, HeLa and LO2 cell lines were cultured in DMEM containing 10% fetal bovine serum (FBS), 100 IU/mL penicillin and 100 µg/mL streptomycin; A549 and K562 cell lines were cultured in RPMI 1640 medium containing 10% fetal bovine serum (FBS), 100 IU/mL penicillin and 100 µg/mL streptomycin; Human umbilical vein endothelial cells (HUVECs) were cultured on gelatin-coated culture flasks in M-199 medium with 20% fetal bovine serum (FBS), 2 ng/mL VEGF, 10 ng/mL basic FGF, 100 IU/mL penicillin, and 100 μg/mL streptomycin; all of them were obtained from the American Type Culture Collection (ATCC) and all cell lines were incubated in an atmosphere of 5% CO2 at 37 °C.
(§4) Cells were treated with various concentrations of compound in 96-well culture plates for 24 h in final volumes of 200 μL (5 × 10^3 cells/well). Then 20 μL of MTT solution (5 mg/mL) was added to each well, and cells were incubated for an additional 3 h. Then the medium was carefully removed, and precipitates were dissolved in 150 μL of DMSO, shaken mechanically for 30 min, and then absorbance values at a wavelength of 570 nm were taken on a spectrophotometer (Molecular Devices, Sunnyvale, CA, USA). Values were calculated using percentage of growth versus untreated control. The IC50 was defined as the concentration that caused 50% inhibition of cell proliferation, and was calculated by SAS statistical software.
A general note: Tetrazolium dyes change colour on reduction, which living cells bring about.

In the next data set the test system is HCT116. The experiment in a line: MTT assay, cell proliferation. It is filed as cell-based. Particulars: Homo sapiens, HCT-116, 24 h, read-out: IC50, inhibition of cell proliferation. As for the experimental part:
as §3, §4

For a further data set, the system named is HeLa. The experiment in a line: MTT assay, cell proliferation. It is filed as cell-based. Particulars: Homo sapiens, 24 h, read-out: IC50, inhibition of cell proliferation. As for the experimental part:
as §3, §4

The subject of the next data set is HepG2. The data set can be described thus: MTT assay, cell proliferation. It counts as cell-based. Particulars: Homo sapiens, 24 h, read-out: IC50, inhibition of cell proliferation. The procedure: as §3, §4
In the next data set the test system is K562. The data set can be described thus: MTT assay, cell proliferation. It is filed as cell-based. The note with it: Homo sapiens, 24 h, read-out: IC50, inhibition of cell proliferation. As for the experimental part: as §3, §4
In a further data set the test system is HUVEC. The experiment in a line: MTT assay, cell proliferation. It counts as cell-based, Human. The note with it: Homo sapiens, 24 h, read-out: IC50, inhibition of cell proliferation. The procedure:
Inhibiting the proliferation of ECs is another important strategy for antiangiogenesis. […] As the exposure time of these derivatives was 24 h in the migration assay and 6 h in the tube formation assay, the effect of the incubation for 24 h in the presence of these compounds on HUVECs proliferation was then tested. Cell viability was assessed by the MTT method. We can see from Table 4 that these compounds had different antiproliferative activities.
as §3, §4

For a further data set, the system named is LO2. The experiment in a line: MTT assay, cytotoxicity. The note with it: Homo sapiens, L02, 24 h, read-out: IC50, inhibition of cell proliferation. It counts as cell-based. As for the experimental part: as §3, §4
The mark [4] stands for this setting: 1 μM, zebrafish embryos, read-out: antiangiogenic rates.
The mark [5] stands for this setting: 1 μM, zebrafish embryos, vs vehicle (0.05% DMSO), read-out: Anti-angiogenic phenotype.
Where [6] appears, read: 2.5 μM, zebrafish embryos, vs vehicle (0.05% DMSO), read-out: Anti-angiogenic phenotype.
Setting [7] is: zebrafish embryos, vs vehicle (0.05% DMSO), read-out: Anti-angiogenic phenotype.
The mark [8] stands for this setting: 2.5 µM and 10 µM, zebrafish embryos.

Where two headings read alike, the source gives them in different places. Some results are limits rather than exact numbers.

For the compound `CC(=O)Nc1ccc(OC(=O)/C(C)=C\CC23OC(C)(C)C4CC(C=C5C(=O)c6c(O)c7c(c(CC=C(C)C)c6OC542)OC(C)(CCC=C(C)C)C=C7)C3=O)cc1` (stereo not drawn) [Compound 4, 4-Acetamidephenyl gambogate], the inhibition in vivo at 1 µM in data set [1] (setting [4]) and in [1] (setting [5]) was 25 to 50% each time. In addition, in [1] (setting [6]), the inhibition in vivo at 2.5 µM lay within 50 to 75%. The inhibition in vivo at 10 µM in [1] (setting [7]) is over 75%. Also, the “Heart rates of zebrafish” value stood at 80 ± 5.31 beats/min in the data set on zebrafish embryos [2] (2.5 μM) and 54 ± 4.00 beats/min in the data set on zebrafish embryos [2] (10 μM). Further, the Mortality rates in the data set on zebrafish embryos [3] (1 μM, zebrafish) is 0%; with zebrafish embryos [3] (setting [8]) it was “less than 20%”; in the data set on zebrafish embryos [3] (2.5 μM, zebrafish), 6.7 ± 5.77 %; with zebrafish embryos [3] (10 μM, zebrafish), 20 ± 0.00 %. Also, the inhibition at 0.5 µM in the data set with HUVECs is 43.5%. Moreover, the IC50 in the data set with A549 came to 950 ± 90 nM; in the data set with HCT116 it was 480 ± 40 nM; in the data set with HeLa it was 1340 ± 40 nM; in the data set with HepG2, 1100 ± 60 nM; with K562, 410 ± 20 nM; in the data set with HUVEC, 1170 ± 120 nM. For the same compound, in the data set on LO2, the IC50 was 830 ± 30 nM.

Consider `CC(C)=CCCC1(C)C=Cc2c(O)c3c(c(CC=C(C)C)c2O1)OC12C(=CC4CC1C(C)(C)OC2(C/C=C(/C)C(=O)Oc1ccc(Cl)cc1C=O)C4=O)C3=O` (stereo not drawn) [Compound 23, 4-Chloro-2-formylphenyl gambogate], for which, in data set [1] (1 μM, zebrafish embryos), the antiangiogenic rates result was “inactive”. The inhibition in vivo at 10 µM in [1] (setting [7]) was 25 to 50%. Moreover, the IC50 with A549 was 73500 ± 3400 nM; in the data set with HCT116, 15900 ± 1460 nM; in the data set on HeLa it was 61600 ± 5860 nM; in the data set with HepG2, 20000 ± 2890 nM; in the data set with K562, 15400 ± 1350 nM; in the data set with HUVEC, 32000 ± 1760 nM. Further, the IC50 in the data set with LO2 was determined as 31700 ± 1940 nM.

For `CCCC(=O)Nc1ccc(OC(=O)/C(C)=C\CC23OC(C)(C)C4CC(C=C5C(=O)c6c(O)c7c(c(CC=C(C)C)c6OC542)OC(C)(CCC=C(C)C)C=C7)C3=O)cc1` (stereo not drawn) [Compound 26, 4-Butyramidophenyl gambogate], the “antiangiogenic activities” value in data set [1] (2.5 μM, not enhanced greatly at 10 μM) is on record as “moderate”. The inhibition in vivo at 1 µM in data set [1] (setting [4]) and in [1] (setting [5]) was 25 to 50% throughout. In addition, the inhibition in vivo at 2.5 µM in data set [1] (setting [6]) fell in the range of 25 to 50%. Moreover, the inhibition in vivo at 10 µM in [1] (setting [7]) fell in the range of 25 to 50%. The IC50 with A549 was found to be 4000 ± 800 nM; in the data set on HCT116, 1730 ± 440 nM; with HeLa it was 4460 ± 570 nM; with HepG2, 1720 ± 120 nM; with K562, 770 ± 30 nM; in the data set on HUVEC it was 2980 ± 100 nM. Also, the IC50 in the data set with LO2 turned out to be 4220 ± 500 nM.

Turning to `CC(C)=CCCC1(C)C=Cc2c(O)c3c(c(CC=C(C)C)c2O1)OC12C(=CC4CC1C(C)(C)OC2(C/C=C(/C)C(=O)Nc1nccs1)C4=O)C3=O` (stereo not drawn) [Compound 32, Thiazol-2-gambogamide], the inhibition in vivo at 1 µM in data set [1] (setting [4]) and in [1] (setting [5]) was 25 to 50% each time. The inhibition in vivo at 2.5 µM in data set [1] (setting [6]) was in the range of 50 to 75%. Besides, the inhibition in vivo at 10 µM in data set [1] (setting [7]) is over 75%. For the same compound, the “Heart rates of zebrafish” value came to 60 ± 4.36 beats/min with zebrafish embryos [2] (2.5 μM) and 54 ± 3.68 beats/min with zebrafish embryos [2] (10 μM). Besides, the Mortality rates with zebrafish embryos [3] (1 μM, zebrafish) is recorded as 0%; with zebrafish embryos [3] (setting [8]), “less than 20%”; in the data set with zebrafish embryos [3] (2.5 μM, zebrafish), 6.7 ± 5.77 %; in the data set with zebrafish embryos [3] (10 μM, zebrafish), 16.7 ± 5.77 %. In addition, in the data set with HUVECs, the inhibition at 0.5 µM came out at 39.1%. The IC50 with A549 turned out to be 740 ± 40 nM; with HCT116, 450 ± 10 nM; with HeLa, 1080 ± 100 nM; with HepG2, 810 ± 60 nM; in the data set on K562, 400 ± 20 nM; with HUVEC it was 1090 ± 90 nM. Moreover, the IC50 in the data set on LO2 stood at 1700 ± 480 nM.
